Measured values published in ChEMBL document CHEMBL1671705, “Investigations into the role of the Plasmodium falciparum SERCA (PfATP6) L263E mutation in artemisinin action and resistance” (Antimicrob Agents Chemother, 2010).
pIC50: −log10 of the molar value.

Assays:
Format in all cases: functional, organism-based
Plasmodium falciparum [1] = assay: Antimalarial activity against Plasmodium falciparum 7G8 clone 1 harboring pfATP6 L263 mutant assessed as inhibition of [3H]hypoxanthine incorporation
Plasmodium falciparum [2] = assay: Antimalarial activity against Plasmodium falciparum D10 clone 1 assessed as inhibition of [3H]hypoxanthine incorporation
Plasmodium falciparum [3] = assay: Antimalarial activity against Plasmodium falciparum D10 clone M3 assessed as inhibition of [3H]hypoxanthine incorporation
Plasmodium falciparum [4] = assay: Antimalarial activity against Plasmodium falciparum 7G8 clone M1 harboring pfATP6 L263 mutant assessed as inhibition of [3H]hypoxanthine incorporation
Plasmodium falciparum [5] = assay: Antimalarial activity against Plasmodium falciparum D10 clone M1 assessed as inhibition of [3H]hypoxanthine incorporation
Plasmodium falciparum [6] = assay: Antimalarial activity against Plasmodium falciparum D10 clone M2 assessed as inhibition of [3H]hypoxanthine incorporation
Plasmodium falciparum [7] = assay: Antimalarial activity against Plasmodium falciparum D10 harboring pfATP6 L263 mutant assessed as inhibition of [3H]hypoxanthine incorporation
Plasmodium falciparum [8] = assay: Antimalarial activity against Plasmodium falciparum 7G8 clone M2 assessed as inhibition of [3H]hypoxanthine incorporation
Plasmodium falciparum [9] = assay: Antimalarial activity against Plasmodium falciparum D10 clone 1 harboring pfATP6 L263 mutant assessed as inhibition of [3H]hypoxanthine incorporation
Plasmodium falciparum [10] = assay: Antimalarial activity against Plasmodium falciparum 7G8 clone M1 assessed as inhibition of [3H]hypoxanthine incorporation
Plasmodium falciparum [11] = assay: Antimalarial activity against Plasmodium falciparum 7G8 clone M3 assessed as inhibition of [3H]hypoxanthine incorporation
Plasmodium falciparum [12] = assay: Antimalarial activity against Plasmodium falciparum D10 harboring pfATP6 263E mutant assessed as inhibition of [3H]hypoxanthine incorporation
Plasmodium falciparum [13] = assay: Antimalarial activity against Plasmodium falciparum 7G8 clone 2 assessed as inhibition of [3H]hypoxanthine incorporation
Plasmodium falciparum [14] = assay: Antimalarial activity against Plasmodium falciparum 7G8 clone 1 assessed as inhibition of [3H]hypoxanthine incorporation
Plasmodium falciparum [15] = assay: Antimalarial activity against Plasmodium falciparum D10 clone M1 harboring pfATP6 L263 mutant assessed as inhibition of [3H]hypoxanthine incorporation
Plasmodium falciparum [16] = assay: Antimalarial activity against Plasmodium falciparum 7G8 clone M4 assessed as inhibition of [3H]hypoxanthine incorporation
Plasmodium falciparum [17] = assay: Antimalarial activity against Plasmodium falciparum 7G8 harboring pfATP6 263E mutant assessed as inhibition of [3H]hypoxanthine incorporation
Plasmodium falciparum [18] = assay: Antimalarial activity against Plasmodium falciparum D10 clone 2 assessed as inhibition of [3H]hypoxanthine incorporation
Plasmodium falciparum [19] = assay: Antimalarial activity against Plasmodium falciparum 7G8 harboring pfATP6 L263 mutant assessed as inhibition of [3H]hypoxanthine incorporation

Structure (SMILES) | pIC50 (Plasmodium falciparum [1]) | pIC50 (Plasmodium falciparum [2]) | pIC50 (Plasmodium falciparum [3]) | pIC50 (Plasmodium falciparum [4]) | pIC50 (Plasmodium falciparum [5]) | pIC50 (Plasmodium falciparum [6]) | pIC50 (Plasmodium falciparum [7]) | pIC50 (Plasmodium falciparum [8]) | pIC50 (Plasmodium falciparum [9]) | pIC50 (Plasmodium falciparum [10]) | pIC50 (Plasmodium falciparum [11]) | pIC50 (Plasmodium falciparum [12]) | pIC50 (Plasmodium falciparum [13]) | pIC50 (Plasmodium falciparum [14]) | pIC50 (Plasmodium falciparum [15]) | pIC50 (Plasmodium falciparum [16]) | pIC50 (Plasmodium falciparum [17]) | pIC50 (Plasmodium falciparum [18]) | pIC50 (Plasmodium falciparum [19])
C[C@@H]1CC[C@H]2[C@@H](C)C(=O)O[C@@H]3O[C@@]4(C)CC[C@@H]1[C@]32OO4 [ARTEMISININ] | 7.68 | 7.32 | 7.43 | 7.65 | 7.21 | 7.25 | 7.37 | 7.71 | 7.37 | 7.60 | 7.69 | 7.29 | 7.68 | 7.69 | 7.29 | 7.60 | 7.65 | 7.46 | 7.68
C[C@H]1[C@@H](O)O[C@@H]2O[C@@]3(C)CC[C@H]4[C@H](C)CC[C@@H]1[C@@]24OO3 [ARTENIMOL] | 8.65 | 8.47 | 8.45 | 8.63 | 8.42 | 8.34 | 8.47 | 8.66 | 8.47 | 8.59 | 8.62 | 8.40 | 8.56 | 8.70 | 8.40 | 8.65 | 8.89 | 8.47 | 8.65
C[C@H]1[C@H](OC(=O)CCC(=O)O)O[C@@H]2O[C@@]3(C)CC[C@H]4[C@H](C)CC[C@@H]1[C@@]24OO3 [ARTESUNATE] | 7.87 | 7.58 | 7.61 | 7.83 | 7.58 | 7.56 | 7.63 | 7.88 | 7.63 | 7.80 | 7.91 | 7.58 | 7.92 | 7.85 | 7.58 | 7.67 | 7.83 | 7.77 | 7.87
